Results on five molecules are retold here after patent US9056098B2, “Hemoglobin-based oxygen carrier-containing pharmaceutical composition for cancer targeting treatment and prevention of cancer recurrence” (Vision Global Holdings Ltd., priority 2012, dated 2015).

Common to all, as to type: cell-based
The test system of one test is HepG2 cells. Kind of test: MTT cytotoxicity assay in HepG2 cells. Here is the method:
(§1) HepG2 and Huh7 cell lines are used. These cells are cultured in DMEM (Invitrogen) with 10% Fetal bovine serum (FBS), 100 U/ml penicillin and 100 μg/ml streptomycin at 37° C. For normoxic condition, cells are incubated with ambient O2 concentration and 5% CO2; for hypoxic condition, cells are incubated with 0.1-0.5% O2 (Quorum FC-7 automatic CO2/O2/N2 gas mixer) and 5% CO2.
(§2) Cell viability is measured using a 3-(4,5-dimethylthiazol-2-yl)-2,5-diphenyltetrazolium bromide (MTT) proliferation assay. Briefly, HepG2 or Huh7 cells are seeded in a 96-well flat-bottomed microplate (6000 cells/well) and cultured in 100 μL growth medium at 37° C. and 5% CO2 for 24 h. Cell culture medium in each well is then replaced by 100 μL cell growth medium, containing either no drug, Hb alone or Hb with another chemotherapeutics at their IC50 concentrations. Incubation of Hb for 24 h, 20 μL MTT labeling reagent (5 mg/mL in PBS solution) is added to each well for further 4 h at 37° C. The growth medium is removed gently, and 200 μL DMSO is then added to each well as solubilizing agent to dissolve the formazan crystals completely. The absorbance at the wavelength of 570 nm is measured by Multiskan EX (Thermo Electron Corporation), and each data point represents the means±SD from triplicate wells.

A further test deals with Huh7 cells. Kind of test: MTT cytotoxicity assay in Huh7 cells. Here is the method: as §1, §2
(In general: Tetrazolium dyes change colour on reduction, which living cells bring about.)

Test [1] relates to MCF7 cells isolated from mammospheres (cancer stem cells). Kind of test: MTT assay on cancer stem cells from MCF7 mammospheres. The note with it: Hb 0.2 g/dL, Bort 0.5 μM, 5FU 5 μM. Here is the method:
as §2
To test sensitivity of the cancer stem cells to chemotherapeutic agent alone or to the combined therapy of hemoglobin-based oxygen carrier and the chemotherapeutic agent, different sets of chemotherapeutic agent and/or the hemoglobin-based oxygen carrier of the present invention are administered to MCF7 cells isolated from mammospheres which are obtained at later passages, e.g. passages 7 and 8. Before testing the sensitivity of the cancer stem cells, the drug resistance of CD44+/CD24− to chemotherapeutic agent is shown in FIG. 32. Unsorted MCF7 cells and CD44+/CD24− sorted cells are incubated with DMSO (as control) and 90 nM of Taxol for 16 hours and 4 days. Phase contrast images (FIG. 32) for each set of sample are taken at each time interval (16 hours and 4 days) and the sorted cells after Taxol treatment for 4 days are further tested by MTT assay (as described in Example 3) to confirm the drug resistance of these cells to chemotherapeutic agent.
The high resistance of the CSCs to chemotherapeutic agent is further confirmed by the results of MTT assays on single cells from two passages (P7 and P8) after the mammospheres are treated with different combination of chemical(s) for at least 24 hours before trypsinization of mammospheres. The mammospheres are grown under the hypoxic conditions (5% CO2, 1.1% 02) to mimic the physiological environment of a tumor. Different combination of chemical(s) used in the MTT assays include the Hb alone (0.2 g/dL), Bortezomib (“Bort”, 0.5 μM) alone, 5-fluorouracil (“5FU”, 5 μM) alone, or any combination of the above. In case of the combinational drug (i.e. Hb+at least one chemotherapeutic agent), the trypsinized cells are incubated with 0.2 g/dL of Hb for 24 hours followed by the addition of the intended chemotherapeutic agent(s) and incubated for another 24 hours. In the normalized value, “1” represents 100% of survival rate; 0.75 represents 75% of survival rate, etc.

Test [2] concerns CD44+/CD24− sorted MCF7 cells. Briefly: Taxol resistance of CD44+/CD24− sorted MCF7 cells (morphology, MTT). The note with it: 90 nM. Here is the method: as §2
In order to test the effect of hemoglobin-based oxygen carrier on the cancer stem cells in a tumor, the MCF7 cells are incubated under hypoxic condition (5% CO2 and 1.1% O2) for 9-20 days before passing to the cell sorter where two filters are used: PE-A for CD24 marker while APC-A for CD44 marker. Quadrant 1 where cells are positive to CD44 and negative to CD24 (FIG. 31) are sorted for further analysis. […]

Setting [3] is: Homo sapiens, HepG2, HepG2 hypoxic.
Where [4] appears, read: Homo sapiens, HepG2, HepG2 normoxic.
[5] abbreviates: Homo sapiens, Huh-7, Huh7 hypoxic.
Setting [6] is: Homo sapiens, Huh-7, Huh7 normoxic.
Setting [7] is: Mammosphere (P7) under Hypoxic condition.
Setting [8] is: Mammosphere (P8) under Hypoxic condition.

The term IC50 denotes the point on the concentration scale where inhibition reaches its midpoint. A low value points to greater potency.

Where “and” joins values, the source holds several entries; their conditions need not be identical. Identical values can stand only once.

With `O=c1[nH]cc(F)c(=O)[nH]1` [5FU, 5-fluorouracil], the IC50 with HepG2 cells (setting [3]) was found to be 4000 µM; in the test on HepG2 cells (setting [4]) it was 4000 µM; with Huh7 cells (setting [5]), 4000 µM; in the test with Huh7 cells (setting [6]) it was 3500 µM. In addition, the “Absorbance (replicates)” value was 0.171 and 0.197 and 0.139 and 0.143 and 0.169 in test [1] (setting [7]); 0.155 and 0.165 and 0.129 and 0.157 in test [1] (setting [8]). The “Normalized absorbance (replicates), 1 represents 100% of survival rate” value in test [1] (setting [7]) was 0.7566 and 0.8942 and 0.9048 and 1.042 and 0.7355; in test [1] (setting [8]), 0.7416 and 0.7895 and 0.6172 and 0.7512. The “Normalized absorbance Avg, 1 represents 100% of survival rate” value is listed as 0.8667 in test [1] (setting [7]) and 0.7249 in test [1] (setting [8]).
In the case of `CC(C)C[C@H](NC(=O)[C@H](Cc1ccccc1)NC(=O)c1cnccn1)B(O)O` [Bortezomib], the IC50 was determined as 0.7 µM in the test with HepG2 cells (setting [3]), 0.5 µM in the test on HepG2 cells (setting [4]), 60 µM with Huh7 cells (setting [5]) and 55 µM in the test with Huh7 cells (setting [6]). The entries for the “resistance of Huh7 cells as compared to HepG2 cells” value with Huh7 cells (hypoxic condition) and in the test with Huh7 cells (normoxic condition) were 86 fold and 110 fold, respectively. Also, the “Absorbance (replicates)” value in test [1] (setting [7]) was 0.178 and 0.172 and 0.177 and 0.163 and 0.174; in test [1] (setting [8]) it was 0.169 and 0.166 and 0.159 and 0.155. In addition, the “Normalized absorbance (replicates), 1 represents 100% of survival rate” value is 0.8624 and 0.9206 and 0.9418 and 0.9101 and 0.9365 in test [1] (setting [7]); 0.8086 and 0.7943 and 0.7608 and 0.7416 in test [1] (setting [8]). Further, the “Normalized absorbance Avg, 1 represents 100% of survival rate” value in test [1] (setting [7]) amounted to 0.9143; in test [1] (setting [8]), 0.7763.
Turning to `N.N.[Cl][Pt][Cl]` [Cisplatin], the IC50 in the test on HepG2 cells (HepG2 hypoxic) was 170 µM; in the test on HepG2 cells (HepG2 normoxic), 130 µM; with Huh7 cells (Huh7 hypoxic) it was 100 µM; with Huh7 cells (Huh7 normoxic) it was 70 µM.
Turning to `COc1cccc2c1C(=O)c1c(O)c3c(c(O)c1C2=O)C[C@@](O)(C(=O)CO)C[C@@H]3O[C@H]1C[C@H](N)[C@H](O)[C@H](C)O1` [Doxorubicin], the IC50 came to 30 µM with HepG2 cells (setting [3]), 10 µM in the test on HepG2 cells (setting [4]), 6 µM in the test on Huh7 cells (setting [5]) and 5 µM in the test with Huh7 cells (setting [6]).
For `CC(=O)O[C@H]1C(=O)[C@@]2(C)[C@H]([C@H](OC(=O)c3ccccc3)[C@]3(O)C[C@H](OC(=O)[C@H](O)[C@@H](NC(=O)c4ccccc4)c4ccccc4)C(C)=C1C3(C)C)[C@]1(OC(C)=O)CO[C@@H]1C[C@@H]2O` [Taxol], in test [2] (4 days), the “survival (MTT)” value was “about 96%”. In test [2] (both unsorted and CD44+/CD24− sorted cells), the mammosphere formation result is listed as “seem to be inhibited”.
